Measurements from ChEMBL document CHEMBL1149094, “3-(4-Aroyl-1-methyl-1H-pyrrol-2-yl)-N-hydroxy-2-propenamides as a new class of synthetic histone deacetylase inhibitors. 3. Discovery of novel lead compounds through structure-based drug design and docking studies” (J Med Chem, 2004).

Tests used:
Histone deacetylase 1 [1] = target: T1, Histone deacetylase 1 (Mus musculus, UniProt O09106); assay: Inhibition of mouse HDAC1
Histone deacetylase HD2 [2] = target: T2, Histone deacetylase HD2 (Zea mays, UniProt Q94F81); assay: Inhibition of maize Histone deacetylase 2
T2 sequence (Q94F81 whole entry): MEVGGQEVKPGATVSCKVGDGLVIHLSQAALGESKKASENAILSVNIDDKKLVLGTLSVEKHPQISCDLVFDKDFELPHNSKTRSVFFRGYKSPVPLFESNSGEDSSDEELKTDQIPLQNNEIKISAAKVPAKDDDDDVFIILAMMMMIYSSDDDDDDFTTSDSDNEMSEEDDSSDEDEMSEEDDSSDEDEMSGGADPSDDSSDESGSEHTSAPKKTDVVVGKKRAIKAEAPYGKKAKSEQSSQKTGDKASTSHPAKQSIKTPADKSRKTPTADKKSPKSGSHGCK

[3] = target: T3, Histone deacetylase HD2 (Zea mays) (UniProt Q94F81); assay: Percent inhibition of maize histone deacetylase 2 receptor at a dose of 30 uM
T3 sequence (whole entry): T2 sequence (Q94F81 whole entry)

Histone deacetylase 1 [4] = target: T1, Histone deacetylase 1; assay: Inhibition of mouse Histone deacetylase 1 (HDAC1) receptor
Histone deacetylase HD2 [5] = target: T2, Histone deacetylase HD2; assay: Inhibition of maize histone deacetylase 2

T1 sequence (O09106 whole entry): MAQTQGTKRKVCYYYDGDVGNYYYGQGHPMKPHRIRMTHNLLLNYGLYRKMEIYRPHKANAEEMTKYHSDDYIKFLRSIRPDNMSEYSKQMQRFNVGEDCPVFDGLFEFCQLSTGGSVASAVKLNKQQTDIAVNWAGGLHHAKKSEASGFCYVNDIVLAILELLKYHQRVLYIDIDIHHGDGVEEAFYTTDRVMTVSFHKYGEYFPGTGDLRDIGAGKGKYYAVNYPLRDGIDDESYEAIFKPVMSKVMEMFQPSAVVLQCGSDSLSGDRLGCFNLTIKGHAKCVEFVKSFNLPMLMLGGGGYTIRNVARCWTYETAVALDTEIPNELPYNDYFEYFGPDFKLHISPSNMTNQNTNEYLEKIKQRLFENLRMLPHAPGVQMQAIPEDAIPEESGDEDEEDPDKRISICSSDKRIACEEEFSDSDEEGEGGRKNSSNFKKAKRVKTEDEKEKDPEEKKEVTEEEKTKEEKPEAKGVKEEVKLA

| SMILES | IC50 (Histone deacetylase 1 [1]) | IC50 (Histone deacetylase HD2 [2]) | inhibition [3] | IC50 (Histone deacetylase 1 [4]) | IC50 (Histone deacetylase HD2 [5]) |
| --- | --- | --- | --- | --- | --- |
| Cn1c(/C=C/C(=O)NO)ccc1C(=O)c1ccccc1 | 0.229 µM | 0.251 µM | 95% | 0.25 µM | 0.28 µM |
| Cn1cc(/C=C/C(=O)NO)cc1C(=O)c1ccccc1 | 0.776 µM | 0.0501 µM | 97% | 0.78 µM | 0.05 µM |
